The subject of data set [1] is Trypanosome (T. brucei brucei). The experiment in a line: In-vitro antitrypanosomal efficacy assay (cell growth, resazurin). Format: cell-based.
Experimental: To column 12, 200 μl media was added to provide a no cells control. Plates were then incubated at 37° C. in an atmosphere of 5% CO2 for 69 hours, before the addition of 20 μl of 500 μM rezasurin solution, and a further incubation period of 4 hours. […] Concentration effect curves were fitted using non-linear regression using XLFit 4.2 and EC50 values determined.
For a further data set, the system named is OE21. The experiment in a line: In-vitro antiproliferative assay, OE21. Format: cell-based. The settings on record: Homo sapiens, read-out: IC50 OE21.
Another data set deals with MDA-MB-231. The experiment in a line: In-vitro antiproliferative assay, MDA-MB-231. The note with it: read-out: IC50 MDA-MB-231. It counts as cell-based, human.
The test system of another data set is NCI-H1299. As to the kind of experiment: In-vitro antiproliferative assay, NCI-H1299. Format: cell-based. The note with it: Homo sapiens, read-out: IC50 NCI-H1299.
A further data set relates to OE19. As to the kind of experiment: In-vitro antiproliferative assay, OE19. It counts as cell-based. The settings on record: Homo sapiens, read-out: IC50 OE19.
Data set [2] addresses A. fumigatus N-myristoyl transferase (Aspergillus fumigatus (strain ATCC MYA-4609 / CBS 101355 / FGSC A1100 / Af293) (Neosartorya fumigata), UniProt Q9UVX3). The experiment in a line: biochemical. The settings on record: read-out: IC50 (μM) NMT Enzyme (AfNMT). Format: biochemical.
Data set [3] addresses T. brucei N-myristoyl transferase (Trypanosoma brucei brucei (strain 927/4 GUTat10.1), UniProt Q388H8). As to the kind of experiment: biochemical. Format: biochemical. The note with it: read-out: IC50 (μM) NMT Enzyme.
The next data set has as its target human NMT-1 (Homo sapiens (Human), UniProt P30419). The experiment in a line: NMT enzyme inhibition scintillation proximity assay, human NMT-1. It counts as biochemical. The settings on record: HuNMT-1. (In general: SPA uses beads or plates that emit light when radiolabelled molecules are held near them.)
Data set [4] in a line: CNS penetration: drug concentration in blood and brain after i.v. dosing. The note with it: iv, female NMRI mouse, t = 5 min; for Kp at 5 min: brain / whole blood; for concentration at 5 min: average of three animals. Format: in vivo.
Experimental: Assessment of the CNS penetration of NMT inhibitors was determined in the female NMRI mouse following i.v. dosing (n=3 per dose group, concentration measured after t=5 min).
Another data set deals with HCT116. The experiment in a line: In-vitro antiproliferative assay, HCT116. Format: cell-based, human. The note with it: read-out: IC50 HCT116.
For another data set, the system named is HT29. The experiment in a line: In-vitro antiproliferative assay, HT29. It counts as cell-based, human. The note with it: Table 4, 72 h, Alamar blue, read-out: IC50 HT-29. Background: Resazurin is reduced to fluorescent resorufin, in cell work by metabolically active cells.
The mark [5] stands for this setting: value printed without enzyme tag in the NMT Enzyme column (taken as T. brucei NMT).
[6] abbreviates: value with no enzyme tag in the cell, taken as T. brucei NMT.
Setting [7] is: Homo sapiens, HCT-116, Table 4, 72 h, Alamar blue.
Where [8] appears, read: Homo sapiens, MDA-MB-231, Table 4, 72 h, Alamar blue.
The mark [9] stands for this setting: brain, single i.v. dose 2.0 mg/kg, read-out: Conc (ng/ml in brain).
Setting [10] is: whole blood, single i.v. dose 2.0 mg/kg, read-out: Conc (ng/ml in blood).

Like-named read-outs stand apart in the source and are kept apart here.

human NMT-1, sequence (P30419 whole entry): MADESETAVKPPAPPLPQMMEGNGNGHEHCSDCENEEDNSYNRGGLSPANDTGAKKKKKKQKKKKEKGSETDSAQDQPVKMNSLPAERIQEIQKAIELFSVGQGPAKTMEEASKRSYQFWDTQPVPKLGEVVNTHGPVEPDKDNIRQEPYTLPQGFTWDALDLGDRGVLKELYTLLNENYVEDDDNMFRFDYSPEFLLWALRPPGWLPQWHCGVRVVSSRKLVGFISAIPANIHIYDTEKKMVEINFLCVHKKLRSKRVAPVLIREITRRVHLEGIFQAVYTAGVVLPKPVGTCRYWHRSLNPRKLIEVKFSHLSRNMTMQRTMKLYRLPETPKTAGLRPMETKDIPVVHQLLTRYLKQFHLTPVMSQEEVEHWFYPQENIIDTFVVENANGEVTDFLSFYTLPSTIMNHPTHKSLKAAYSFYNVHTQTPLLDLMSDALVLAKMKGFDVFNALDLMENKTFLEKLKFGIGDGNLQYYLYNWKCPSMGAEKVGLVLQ
T. brucei N-myristoyl transferase, sequence (Q388H8 1-446): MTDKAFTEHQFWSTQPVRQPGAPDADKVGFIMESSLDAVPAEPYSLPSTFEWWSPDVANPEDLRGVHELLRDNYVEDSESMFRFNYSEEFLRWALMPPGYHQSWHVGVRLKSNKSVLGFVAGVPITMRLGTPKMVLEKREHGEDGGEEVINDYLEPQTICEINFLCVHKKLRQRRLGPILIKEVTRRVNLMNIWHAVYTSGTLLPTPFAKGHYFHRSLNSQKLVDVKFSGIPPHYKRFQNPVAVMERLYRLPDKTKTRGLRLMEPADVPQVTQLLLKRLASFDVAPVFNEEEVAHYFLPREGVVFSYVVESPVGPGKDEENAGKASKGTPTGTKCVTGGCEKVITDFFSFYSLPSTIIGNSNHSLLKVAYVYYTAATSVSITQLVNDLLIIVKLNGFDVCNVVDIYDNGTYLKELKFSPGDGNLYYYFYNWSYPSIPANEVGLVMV

Take `Cc1nn(C)c(C)c1N[S+](=O)([O-])c1c(Cl)cc(-c2cccc(C3CCNCC3)c2)cc1Cl`: the “ED50 (μM) T. brucei” value in data set [1] (T. brucei cell growth) was determined as 0.02 µM. Moreover, the IC50 was 1.2 µM in the data set with OE21 (OE21, 72 h); 0.89 µM in the data set on MDA-MB-231 (Homo sapiens, MDA-MB-231, 72 h); 3.71 µM with NCI-H1299 (NCI-H1299, 72 h); 4.57 µM in the data set on OE19 (OE19, 72 h).
As for `COc1cc2c(cc1OC)CN(c1ccc([S+](=O)([O-])Nc3c(C)nn(C)c3C)cn1)CC2` [DDD73476], the IC50 stood at 4.8 µM in data set [2] (AfNMT), 0.32 µM in [3] (setting [5]) and 2.3 µM against human NMT-1. Moreover, the “ED50 (μM) T. brucei” value in data set [1] (T. brucei cell growth) is 1.8 µM.
As to `Cc1nn(C)c(C)c1N(C)[S+](=O)([O-])c1c(Cl)cc(Br)cc1Cl` [DDD73490, 4-Bromo-2,6-dichloro-N-methyl-N-(1,3,5-trimethyl-1H-pyrazol-4-yl)-benzenesulfonamide], the figures for the IC50 (in data set [2] (AfNMT); in data set [3] (setting [5]); on human NMT-1) were 3.9 µM, 0.36 µM and 4 µM, respectively. The “ED50 (μM) T. brucei” value in [1] (T. brucei cell growth) worked out at 2.8 µM. For the same molecule, in [4] (single i.v. dose 0.33 mg/kg), the Kp at 5 min came to 6. Further, the concentration at 5 min in [4] (brain, single i.v. dose 0.33 mg/kg, read-out: Conc (ng/ml in brain)) is 314 ng/mL; in [4] (whole blood, single i.v. dose 0.33 mg/kg, read-out: Conc (ng/ml in blood)) it was 52 ng/mL.
As for `Cc1nn(C)c(C)c1NS(=O)(=O)c1ccc(N2CCc3cccc(N)c3C2)nc1` [DDD73498, 6-(8-Amino-3,4-dihydro-1H-isoquinolin-2-yl)-pyridine-3-sulfonic acid (1,3,5-trimethyl-1H-pyrazol-4-yl)-amide], the results for the IC50 (in [2] (AfNMT); in data set [3] (setting [5]); at human NMT-1) were 14.7 µM, 0.32 µM and 4.3 µM, respectively. Besides, the “ED50 (μM) T. brucei” value in data set [1] (T. brucei cell growth) amounted to 2.6 µM.
On to `Cc1nn(C)c(C)c1N[S+](=O)([O-])c1ccc(-c2cccc(CN3CCN(C)CC3)c2)cc1` [DDD86212, 3′-(4-Methyl-piperazin-1-ylmethyl)-biphenyl-4-sulfonic acid (1,3,6-trimethyl-1H-pyrazol-4-yl)-amide], for which the “ED50 (μM) T. brucei” value in data set [1] (T. brucei cell growth) worked out at 0.03 µM. The IC50 with OE21 (OE21, Table 3, 72 h, Alamar blue) turned out to be 1.39 µM; with MDA-MB-231 (Homo sapiens, MDA-MB-231, Table 3, 72 h, Alamar blue), 0.64 µM; with NCI-H1299 (NCI-H1299, Table 3, 72 h, Alamar blue) it was 1.08 µM; in the data set on OE19 (OE19, Table 3, 72 h, Alamar blue) it was 4.37 µM.
In the case of `Cc1c(N[S+](=O)([O-])c2c(Cl)cc(-c3ccnc(N4CCNCC4)c3)cc2Cl)c(CC(C)C)nn1C` [DDD86481, 2,6-Dichloro-N-(3-isobutyl-1,5-dimethyl-1H-pyrazol-4-yl)-4-(2-piperazin-1-yl-pyridin-4-yl)-benzenesulfonamide], the IC50 with OE21 (OE21, 72 h) turned out to be 0.057 µM; with MDA-MB-231 (Homo sapiens, MDA-MB-231, 72 h), 0.047 µM; in the data set on NCI-H1299 (NCI-H1299, 72 h), 0.096 µM; in the data set on OE19 (OE19, 72 h) it was 0.132 µM.
Take `Cc1nn(C)c(C)c1N[S+](=O)([O-])c1ccc(-c2cccc(Cn3ccnc3)c2)cc1` [DDD88006, 3′-imidazol-1-ylmethyl-biphenyl-4-sulfonic acid (1,3,6-trimethyl-1H-pyrazol-4-yl)-amide]: the IC50 in [2] is 4.2 µM; in [3] (setting [6]), 0.35 µM. Also, the “ED50 (μM) T. brucei” value in [1] (T. brucei cell growth) was 3.9 µM.
`CCN(CC)Cc1cccc(-c2ccc([S+](=O)([O-])N(C)c3c(C)nn(C)c3C)cc2)c1` [DDD88195, 3′-Diethylaminomethyl-biphenyl-4-sulfonic acid methyl-(1,3,5-trimethyl-1H-pyrazol-4-yl)-amide]: the “ED50 (μM) T. brucei” value in data set [1] (T. brucei cell growth) turned out to be 0.51 µM. Also, in [3] (setting [6]), the IC50 was found to be 0.05 µM. In data set [4] (single i.v. dose 1.0 mg/kg), this molecule came in with a partition ratio (Kp) at 5 min of 0.8. The concentration at 5 min was 93 ng/mL in data set [4] (brain, single i.v. dose 1.0 mg/kg, read-out: Conc (ng/ml in brain)) and 116 ng/mL in [4] (whole blood, single i.v. dose 1.0 mg/kg, read-out: Conc (ng/ml in blood)).
On to `Cc1nn(C)c(C)c1N[S+](=O)([O-])c1c(Cl)cc(-c2cccc(CN3CCN(C)CC3)c2)cc1Cl` [DDD88558], for which the IC50 with HCT116 (setting [7]) came out at 0.629 µM; in the data set with HT29 (Homo sapiens, HT-29) it was 0.176 µM; in the data set with MDA-MB-231 (setting [8]), 0.448 µM. Further, the “ED50 (μM) T. brucei” value in [1] (T. brucei cell growth) was determined as 0.009 µM.
For `CCN(CC)Cc1cccc(-c2ccc([S+](=O)([O-])Nc3c(CC(C)C)nn(C)c3C)cc2)c1` [DDD88638], in data set [1] (T. brucei cell growth), the “ED50 (μM) T. brucei” value worked out at 0.084 µM. Besides, the IC50 in [3] (setting [6]) worked out at 0.009 µM. The molecule also gave a Kp at 5 min in data set [4] (single i.v. dose 2.0 mg/kg) of 1.35. Moreover, the concentration at 5 min was determined as 378 ng/mL in data set [4] (setting [9]) and 281 ng/mL in data set [4] (setting [10]).
For `Cc1c(N[S+](=O)([O-])c2c(Cl)cc(CCCC3CCNCC3)cc2Cl)c(CC(C)C)nn1C` [DDD90086], the IC50 in the data set on HCT116 (Table 4, 72 h, Alamar blue) worked out at 0.921 µM; with HT29, 0.281 µM; in data set [3] (setting [6]), 0.004 µM; with MDA-MB-231 (Table 4, 72 h, Alamar blue), 0.537 µM. Further, in data set [1] (T. brucei cell growth), the “ED50 (μM) T. brucei” value is 0.006 µM.
For the molecule `Cc1nn(C)c(C)c1N(C)[S+](=O)([O-])c1ccc(CCCCCCn2ccnc2)cc1` [DDD99754], the values for the IC50 (in data set [2]; in data set [3] (setting [6]); against human NMT-1) were above 1 µM, 0.105 µM and 2.1 µM, respectively. Besides, the “ED50 (μM) T. brucei” value in data set [1] (T. brucei cell growth) was above 1 µM.
Regarding `Cc1nn(C)c(C)c1N(C(F)F)[S+](=O)([O-])c1c(Cl)cc(CCCCC2CCN(C)CC2)cc1Cl` [DDD100144, 2,6-dichloro-N-(difluoromethyl)-4-(4-(1-methylpiperidin-4-yl)butyl)-N-(1,3,5-trimethyl-1H-pyrazol-4-yl)benzenesulfonamide], the IC50 in the data set on HCT116 (Homo sapiens, HCT-116, 72 h) turned out to be 0.282 µM; in the data set on MDA-MB-231 (Homo sapiens, MDA-MB-231, 72 h) it was 0.218 µM. Besides, the values for the concentration at 5 min in [4] (setting [9]) and in data set [4] (setting [10]) were 545 ng/mL and 413 ng/mL, respectively.
Take `Cc1nn(C)c(C)c1N(CC(F)(F)F)[S+](=O)([O-])c1c(Cl)cc(CCCC2CCN(C)CC2)cc1Cl` [DDD100153, 2,6-dichloro-4-(3-(1-methylpiperidin-4-yl)propyl)-N-(2,2,2-trifluoroethyl)-N-(1,3,5-trimethyl-1H-pyrazol-4-yl)benzenesulfonamide]: the “ED50 (μM) T. brucei” value in data set [1] (T. brucei brucei, blood stream form, variant 221) came to 0.023 µM. For the same molecule, in data set [4] (single i.v. dose 2.0 mg/kg), the Kp at 5 min is 0.64. The concentration at 5 min turned out to be 171 ng/mL in [4] (setting [9]) and 269 ng/mL in [4] (setting [10]).
Turning to `Cc1nn(C)c(C)c1N(C(F)F)[S+](=O)([O-])c1c(Cl)cc(CCCOC2CCN(C)CC2)cc1Cl` [DDD100169], the IC50 in the data set on HCT116 (setting [7]) is 0.419 µM; in the data set with MDA-MB-231 (setting [8]), 0.249 µM.

In general, IC50 refers to the concentration needed to halve the response being measured. One may read the Kp as tissue or fluid exposure divided by exposure in the circulation.
